Measurements from patent publication US4151291A, “Ethers of 7-hydroxy-coumarin useful as medicaments” (Unicler, priority 1976, dated 1979).

What was measured:
[1] = oral LD50; conditions: in vivo
Procedure: In addition the oral LD50 was determined for the compounds of the invention.

[2] = tested on: pain syndrome provoked in mice by injection of phenylbenzoquinone; assay: analgesia test of Siegmund, Cadmus and Lu (phenylbenzoquinone-induced pain syndrome); assay type: in vivo, mice of Swiss strain; conditions: oral, 30 minutes before phenylbenzoquinone, extensions counted over 10 minutes vs control
Procedure: They have in particular been submitted to the test of analgesia of Siegmund, Cadmus and Lu (Proc. Soc. Exp. Biol. Med. 95, 729, 1957) according to which a characteristic pain syndrome is provoked in mice by injection of phenylbenzoquinone.
The animals used are mice of Swiss strain weighing 20±2 grams.
The animals are separated into groups of 10, randomly but are individually submitted to experiments. Each experiment is carried out on at least two groups:
a control group receiving solvent and phenylbenzoquinone
a group treated with test compound.
The test compounds are administered orally, 30 minutes before the injection of the irritant. Each mouse then receives intraperitoneally 0.25 ml of a 0.02% phenylbenzoquinone solution.
The pain syndrome generated by the injection of phenylbenzoquinone consists of extension of the abdomen and the back legs; at the height of the reaction, the flanks of the animal are very contracted. 5 Minutes after the injection of the irritant, the extensions are counted over a period of 10 minutes.
For each group, the mean number of extensions is calculated. The activity (A) of the test compound is determined by comparison between the mean number of extensions in the treated animals (N) and the mean number of extensions in the control animals (N') according to the equation [formula]
The statistical significance of the result thus obtained is evaluated by the non-parametric test of Fisher.

Compound	LD50 [1] [mg/kg]	Analgesic Activity A ([2]; dose 150 mg/kg) [%]	Analgesic Activity A ([2]; dose 100 mg/kg) [%]	Analgesic Activity A ([2]; dose 200 mg/kg) [%]	Analgesic Activity A ([2]; dose 50 mg/kg) [%]
C#CCOc1ccc2ccc(=O)oc2c1 [JB 1, 7-Propargyloxy-coumarin]	1500	55			
C#CCOc1ccc2c(C)cc(=O)oc2c1 [JB 2, 4-Methyl-7-propargyloxy-coumarin]	1500	98			
C#CCOc1ccc2c(C)c(CC)c(=O)oc2c1 [JB 4, 3-Ethyl-4-methyl-7-propargyloxy-coumarin]	1000		65		
C#CCOc1ccc2c(-c3ccccc3[N+](=O)[O-])cc(=O)oc2c1 [JB 5, 4-o-nitrophenyl-7-propargyloxy-coumarin]	> 2000			40	
Cc1cc(=O)oc2cc(OCC#CCN3CCOCC3)ccc12 [JB 12, 4-Methyl-7-(4-morpholino-but-2-ynyloxy)-coumarin]	1500	88			
Cc1cc(=O)oc2cc(OCC#CCN(C)C)ccc12 [JB 16, 4-Methyl-7-(4-dimethylamino-but-2-ynyloxy)-coumarin]	500				30
C#CCOc1ccc2c(C)c(CC=C)c(=O)oc2c1 [JB 19, 3-Allyl-4-methyl-7-propargyloxy-coumarin]	1500	81			
